# Test results reported in paper PMC12040169 (PLOS Biology, 2025).
# Test: in vitro
# Settings: human, hela cells, % viability
row,Compound,"viability at 28.5 h, 10 µM"
1,CC(C)(C)NCC(O)COc1c(F)cc(Br)cc1F (stereo not shown) [CBK020879C],107%
2,CCOC(=O)c1sc(C)c(C(N)=O)c1/N=C1\CCCN1 [CBK020893],105%
3,CCCC(SCC)C(N)=O (stereo not shown) [CBK020895],99.1%
4,COC(=O)c1cc(Cl)c(NC(=S)NC(=O)C(C)(C)C)cc1OC [CBK020937],94.1%
5,CCOC(=O)c1sc2ccc(NC(C)=O)cc2c1C [CBK021052],76.8%
6,COc1ccc(C2NCCS2)cc1Br (stereo not shown) [CBK021053],104%
7,COc1ccc(CCOC(=O)Nc2cn(C)nc2C(F)(F)F)cc1OC [CBK021070],105%
8,IC1COC(c2ccccc2)OC1 (stereo not shown) [CBK021109],110%
9,CN1CCC(N(C2CC2)S(=O)(=O)c2ccc(NC(=O)C(C)(C)C)cc2)CC1 [CBK021115],99%
10,Cc1oc(-c2cccs2)cc1C(=O)O [CBK021183],93.5%
11,Cc1ccc(COCSc2nc3ccccc3n2CC(O)CO)cc1C (stereo not shown) [CBK021195],85.1%
12,CC(=O)c1cc2c(N)c(/C(N)=N/C#N)sc2nc1C [CBK021202],70.7%
13,Brc1csc(CNc2ccc3cn[nH]c3c2)c1 [CBK021216],75.1%
14,Cc1ccc(CCn2cc(C)nc2C)cn1 [CBK021231],106%
15,COc1ccc2cc3c(nc2c1)Sc1nncn1N=C3 [CBK021248],100%
16,CNC(=S)N/N=C/c1c(C)cccc1Cl [CBK021253],84.6%
17,C/C(=N\c1ccccc1C(F)(F)F)c1ccncc1 [CBK021262],86.6%
18,O=C(Nc1ccccn1)NC1CCS(=O)(=O)C1 (stereo not shown) [CBK021330],99.9%
19,CCOC(=O)c1c(C#N)c(SCc2ccc(Cl)cc2)nc2c1CN(CC)CC2 [CBK021337],90.9%
20,Nc1nnc2c(C(F)(F)F)nc3ccccc3n12 [CBK021345],82.1%

row,Compound,"viability at 28.5 h, 10 µM"
1,COC(=O)c1ccc(Cl)cc1N(Cc1c(F)cccc1Cl)S(C)(=O)=O [CBK021351],85.3%
2,Cc1ccc(CCn2nc(C)cc2C)cn1 [CBK021375],104%
3,CCOC(=O)C1=NN(C)c2cnn(Cc3ccc(Cl)cc3)c(=O)c2C1C(=O)CC(C)C (stereo not shown) [CBK021389],91.9%
4,COc1ccccc1N1C(=O)[C@H]2N=C(C(=O)c3cnccn3)N[C@H]2C1=O [CBK021406],90.3%
5,COC(=O)c1cn(C(=O)c2snnc2C)nc1C(C)(C)C [CBK021420],89.2%
6,CCOC(=O)C(NC(=O)N(C1=NCC(C)S1)C1CCCCC1)(OC)C(F)(F)F (stereo not shown) [CBK021431],96.8%
7,CCCCSc1cc(C)nc2ncnn12 [CBK021443],105%
8,COc1ccc(Cc2nc(C(C)(C)C)cs2)cc1 [CBK021497B],85%
9,CCOC(=O)C1=C(C)Nc2nc(C)nc(Cl)c2O1 [CBK021504],103%
10,CC(C)(C)c1csc(Nc2ncc(C(F)(F)F)cc2Cl)n1 [CBK021513],77.5%
11,N=C(N)NC(=N)Nc1ccc2c(c1)OCCO2 [CBK021572C],84.3%
12,c1ccc(NCc2ncnc3c2ncn3C2CCCCO2)cc1 (stereo not shown) [CBK021593],100%
13,CC(C)(C)NC(=O)NCC(c1ccc[nH]1)C(F)(F)F (stereo not shown) [CBK021595],92.3%
14,Nc1nc(Cl)cc(Sc2ccc3ccccc3c2)n1 [CBK021630],97.4%
15,CCc1c(C)sc(NC(=O)c2ccc(Br)o2)c1C#N [CBK021662],83.6%
16,CNCCC(Sc1ccccn1)c1ccccc1 (stereo not shown) [CBK021724C],93.5%
17,CCOC(=O)Cc1nnc(-c2ccc(Cl)cc2)[nH]1 [CBK021882],89.1%
18,O=C(CCS(=O)(=O)c1ccc(Br)cc1)OCC(=O)c1ccccc1 [CBK021886],104%
19,FC(F)(F)c1ccncc1-n1cccc1 [CBK021909],85.9%

# Same assay, conditions: human, hela cells, % viability, bulk resorufin, single well
row,Compound,"viability at 28.5 h, 10 µM"
1,CCOC(=O)C1(c2ccccc2)CCN(CC(=O)Nc2ccc(C(=O)OC)cc2)CC1 [CBK020942],92.9%
